Reference: PubChem BioAssay AID1963868 (Molecular Pharmacology Branch, DTP, NCI, 2024)

System: KRAS PDC tumor spheroids (HUVEC+MSC), viability
Test: Anticancer human tumor 254851-301-R-J1-PDC patient-derived colon carcinoma cell line growth inhibition [KRAS2]
Conditions: for viability, T/C: stronger effect = lower value; active = viability on the fitted dose curve at most 10% of control; inactive = the rest
Outline: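 Combination screen of spheroid viability in tumor-cell co-cultures with endothelial (HUVEC) and mesenchymal stem cell stroma. Each agent was tested in half-log dilutions, topping at clinical Cmax or at 10 microM without a known Cmax.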

[1] = curve of first compound, second compound 0.1 µM
[2] = curve of first compound, second compound 0.316 µM
[3] = curve of first compound, second compound 1 µM
[4] = curve of first compound, second compound 3.16 µM
[5] = curve of first compound, second compound 10 µM
[6] = second compound 0.1 µM, first compound 0.0316 µM
[7] = second compound 0.1 µM, first compound 0.1 µM
[8] = second compound 0.1 µM, first compound 0.316 µM
[9] = second compound 0.1 µM, first compound 1 µM
[10] = second compound 0.1 µM, first compound 3.16 µM
[11] = second compound 0.1 µM, first compound 10 µM
[12] = second compound 0.316 µM, first compound 0.0316 µM
[13] = second compound 0.316 µM, first compound 0.1 µM
[14] = second compound 0.316 µM, first compound 0.316 µM
[15] = second compound 0.316 µM, first compound 1 µM
[16] = second compound 0.316 µM, first compound 3.16 µM
[17] = second compound 0.316 µM, first compound 10 µM
[18] = second compound 1 µM, first compound 0.0316 µM
[19] = second compound 1 µM, first compound 0.1 µM
[20] = second compound 1 µM, first compound 0.316 µM
[21] = second compound 1 µM, first compound 1 µM
[22] = second compound 1 µM, first compound 3.16 µM
[23] = second compound 1 µM, first compound 10 µM
[24] = second compound 3.16 µM, first compound 0.0316 µM
[25] = second compound 3.16 µM, first compound 0.1 µM
[26] = second compound 3.16 µM, first compound 0.316 µM
[27] = second compound 3.16 µM, first compound 1 µM
[28] = second compound 3.16 µM, first compound 3.16 µM
[29] = second compound 3.16 µM, first compound 10 µM
[30] = second compound 10 µM, first compound 0.0316 µM
[31] = second compound 10 µM, first compound 0.1 µM
[32] = second compound 10 µM, first compound 0.316 µM
[33] = second compound 10 µM, first compound 1 µM
[34] = second compound 10 µM, first compound 3.16 µM
[35] = second compound 10 µM, first compound 10 µM
[36] = second compound 0.1 µM, first compound 0.000316 µM
[37] = second compound 0.1 µM, first compound 0.001 µM
[38] = second compound 0.1 µM, first compound 0.00316 µM
[39] = second compound 0.1 µM, first compound 0.01 µM
[40] = second compound 0.316 µM, first compound 0.000316 µM
[41] = second compound 0.316 µM, first compound 0.001 µM
[42] = second compound 0.316 µM, first compound 0.00316 µM
[43] = second compound 0.316 µM, first compound 0.01 µM
[44] = second compound 1 µM, first compound 0.000316 µM
[45] = second compound 1 µM, first compound 0.001 µM
[46] = second compound 1 µM, first compound 0.00316 µM
[47] = second compound 1 µM, first compound 0.01 µM
[48] = second compound 3.16 µM, first compound 0.000316 µM
[49] = second compound 3.16 µM, first compound 0.001 µM
[50] = second compound 3.16 µM, first compound 0.00316 µM
[51] = second compound 3.16 µM, first compound 0.01 µM
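Also: spheroids exposed to compounds for seven days before readout.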
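For viability, T/C in this document: 100% = DMSO vehicle control luminescence of the spheroids.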

O=C(c1cc(Cc2n[nH]c(=O)c3ccccc23)ccc1F)N1CCN(C(=O)C2CC2)CC1 + CC1OCC2(CCN(c3cnc(Sc4ccnc(N)c4Cl)c(N)n3)CC2)C1N
inactive: viability, T/C [6] 104% | viability, T/C [7] 107% | viability, T/C [8] 93.8% | viability, T/C [9] 88% | viability, T/C [10] 102% | viability, T/C [11] 91.3% | viability, T/C [12] 92.8% | viability, T/C [13] 95% | viability, T/C [14] 90.6% | viability, T/C [15] 93.7% | viability, T/C [16] 94.7% | viability, T/C [17] 92.4% | viability, T/C [18] 93.6% | viability, T/C [19] 87.1% | viability, T/C [20] 80.6% | viability, T/C [21] 83.7% | viability, T/C [22] 87.6% | viability, T/C [23] 84% | viability, T/C [24] 79.4% | viability, T/C [25] 73.1% | viability, T/C [26] 73.2% | viability, T/C [27] 71.2% | viability, T/C [28] 79.3% | viability, T/C [29] 65.5% | viability, T/C [30] 68.9% | viability, T/C [31] 75.4% | viability, T/C [32] 66.1% | viability, T/C [33] 59.9% | viability, T/C [34] 58.1% | viability, T/C [35] 60.7%
> 10 µM: IC50 [1] | IC50 [2] | IC50 [3] | IC50 [4] | IC50 [5]

CN(C)C/C=C/C(=O)Nc1cc2c(Nc3ccc(F)c(Cl)c3)ncnc2cc1O[C@H]1CCOC1
inactive: viability, T/C (compound 0.000316 µM) 104% [middle of 5 runs] | viability, T/C (compound 0.001 µM) 108% [middle of 5 runs] | viability, T/C (compound 0.00316 µM) 104% [middle of 5 runs] | viability, T/C (compound 0.01 µM) 96.8% [middle of 5 runs] | viability, T/C (compound 0.0316 µM) 97.6% [middle of 5 runs] | viability, T/C (compound 0.1 µM) 81.5% [middle of 5 runs]
> 0.1 µM: IC50 (curve of compound)

CC(C)NCC(C(=O)N1CCN(c2ncnc3c2C(C)CC3O)CC1)c1ccc(Cl)cc1 (configuration not stated) + CNCc1ccccc1-c1csc(C(C)Nc2nc(C)nc3cc(OC)c(OC)cc23)c1
inactive: viability, T/C [6] 105% | viability, T/C [7] 99.1% | viability, T/C [8] 93.3% | viability, T/C [9] 92% | viability, T/C [10] 99.1% | viability, T/C [11] 92.1% | viability, T/C [12] 107% | viability, T/C [13] 111% | viability, T/C [14] 93.4% | viability, T/C [15] 89.5% | viability, T/C [16] 95.6% | viability, T/C [17] 93.5% | viability, T/C [18] 94.8% | viability, T/C [19] 94% | viability, T/C [20] 80.3% | viability, T/C [21] 84.5% | viability, T/C [22] 83.2% | viability, T/C [23] 89.4% | viability, T/C [24] 78.6% | viability, T/C [25] 67.8% | viability, T/C [26] 56% | viability, T/C [27] 73.1% | viability, T/C [28] 56.5% | viability, T/C [29] 52.6%
> 10 µM: IC50 [1] | IC50 [2] | IC50 [3] | IC50 [4]
< 0.0316 µM: IC50 [5]
active: viability, T/C [30] 0.18% | viability, T/C [31] 0.19% | viability, T/C [32] 0.17% | viability, T/C [33] 0.17% | viability, T/C [34] 0.16% | viability, T/C [35] 0.22%

Cn1ncnc1[C@H]1c2n[nH]c(=O)c3cc(F)cc(c23)N[C@@H]1c1ccc(F)cc1 + COc1cc2nc(C)nc(NC(C)c3cc(N)cc(C(F)(F)F)c3)c2cc1OC1CCOC1
inactive: viability, T/C [36] 111% | viability, T/C [37] 95.6% | viability, T/C [38] 104% | viability, T/C [39] 100% | viability, T/C [6] 99.6% | viability, T/C [7] 101% | viability, T/C [40] 95.9% | viability, T/C [41] 100% | viability, T/C [42] 93.5% | viability, T/C [43] 80.9% | viability, T/C [12] 84.8% | viability, T/C [13] 89.5% | viability, T/C [44] 86.9% | viability, T/C [45] 81.6% | viability, T/C [46] 83.1% | viability, T/C [47] 86.4% | viability, T/C [18] 85.9% | viability, T/C [19] 81.3% | viability, T/C [48] 86.5% | viability, T/C [49] 83.8% | viability, T/C [50] 95.9% | viability, T/C [51] 86% | viability, T/C [24] 87.2% | viability, T/C [25] 80.9% | viability, T/C (second compound 10 µM, first compound 0.000316 µM) 77.9% | viability, T/C (second compound 10 µM, first compound 0.001 µM) 83% | viability, T/C (second compound 10 µM, first compound 0.00316 µM) 80.8% | viability, T/C (second compound 10 µM, first compound 0.01 µM) 78.1% | viability, T/C [30] 69.2% | viability, T/C [31] 74.7%
> 0.1 µM: IC50 [1] | IC50 [2] | IC50 [3] | IC50 [4] | IC50 [5]

CN(C)C/C=C/C(=O)Nc1cc2c(Nc3ccc(F)c(Cl)c3)ncnc2cc1O[C@H]1CCOC1 + C=CC(=O)N1CCN(c2nc(OCC3CCCN3C)nc3c2CCN(c2cccc4cccc(C)c24)C3)CC1CC#N
inactive: viability, T/C (second compound 0.0316 µM, first compound 0.000316 µM) 97.2% | viability, T/C (second compound 0.0316 µM, first compound 0.001 µM) 99.7% | viability, T/C (second compound 0.0316 µM, first compound 0.00316 µM) 94.7% | viability, T/C (second compound 0.0316 µM, first compound 0.01 µM) 96.7% | viability, T/C (second compound 0.0316 µM, first compound 0.0316 µM) 97.9% | viability, T/C (second compound 0.0316 µM, first compound 0.1 µM) 78.7% | viability, T/C [36] 105% | viability, T/C [37] 101% | viability, T/C [38] 88.5% | viability, T/C [39] 92.6% | viability, T/C [6] 97.7% | viability, T/C [7] 69.7% | viability, T/C [40] 101% | viability, T/C [41] 97.8% | viability, T/C [42] 92.6% | viability, T/C [43] 75% | viability, T/C [12] 89.3% | viability, T/C [13] 74.5% | viability, T/C [44] 104% | viability, T/C [45] 97.9% | viability, T/C [46] 91.4% | viability, T/C [47] 95.9% | viability, T/C [18] 96.7% | viability, T/C [19] 82.3% | viability, T/C [48] 67.5% | viability, T/C [49] 61.5% | viability, T/C [50] 51.8% | viability, T/C [51] 54.6% | viability, T/C [24] 62.6% | viability, T/C [25] 52.1%
> 0.1 µM: IC50 (curve of first compound, second compound 0.0316 µM) | IC50 [1] | IC50 [2] | IC50 [3] | IC50 [4]

CC(C)NCC(C(=O)N1CCN(c2ncnc3c2C(C)CC3O)CC1)c1ccc(Cl)cc1 (configuration not stated) + C=CC(=O)N1CCN(c2nc(=O)n(-c3c(C)ccnc3C(C)C)c3nc(-c4c(O)cccc4F)c(F)cc23)C(C)C1
inactive: viability, T/C [6] 98.2% | viability, T/C [7] 105% | viability, T/C [8] 92.1% | viability, T/C [9] 98.6% | viability, T/C [10] 98.4% | viability, T/C [11] 97% | viability, T/C [12] 97.4% | viability, T/C [13] 92.6% | viability, T/C [14] 91.7% | viability, T/C [15] 96.4% | viability, T/C [16] 89.2% | viability, T/C [17] 89.8% | viability, T/C [18] 96.9% | viability, T/C [19] 99.9% | viability, T/C [20] 93% | viability, T/C [21] 86.1% | viability, T/C [22] 92.5% | viability, T/C [23] 91.2% | viability, T/C [24] 98.1% | viability, T/C [25] 105% | viability, T/C [26] 95.5% | viability, T/C [27] 98.1% | viability, T/C [28] 93.8% | viability, T/C [29] 88.4% | viability, T/C [30] 98.7% | viability, T/C [31] 102% | viability, T/C [32] 92.1% | viability, T/C [33] 85.4% | viability, T/C [34] 93.4% | viability, T/C [35] 94.7%
> 10 µM: IC50 [1] | IC50 [2] | IC50 [3] | IC50 [4] | IC50 [5]
